In patent publication US10150793B2, “Antagonists of CB1 receptor” (INSERM (Institut National de la Santé et de la Recherche …, priority 2011, dated 2018):
Entries after “also recorded” stand apart in the source; their conditions may differ.

Assays:
[1] = Allopregnanolone and epiallopregnanolone in nucleus accumbens after high dose injection (GC/MS); type: in vivo, Wistar rats; conditions: 50 mg/kg; 30 min after the injections
Method: The capacity of a compound of the invention to be or not to be converted into active pregnenolone downstream derivatives may be evaluated by administering this compound, for example by injecting 50 mg/kg, to a rat, sacrificing the rat 30 min later, measuring the concentration of allopregnanolone and epiallopregnanolone in nucleus accumbens of rat by GC/MS and comparing these concentrations to allopregnanolone and epiallopregnanolone in a rat whose has been injected only a vehicle or pregnenolone.
The concentrations of allopregnanolone and epiallopregnanolone were measured in nucleus accumbens of individual animal by GC/MS 30 min after the injections.

TNF-α = assay: Increase in plasma TNF-alpha induced by LPS; type: in vivo, mice; conditions: Mus musculus; mice; compounds 6 mg/kg 15 min before LPS
Method: Trunk blood was collected and centrifuged at 3000 rpm for 15 min at 4° C. Plasma was stored at −80° C. until measurement of TNFα was carried out. Plasma TNFα levels were assessed using an ELISA kit, following the manufacturer's instructions (Fisher Scientific, Catalog #E6473C).
In this example the inventors further analyzed the ability of pregnenolone to inhibit the effects of CB1 activation in the context of inflammation and fibrosis. […] TNF-alpha is one of the cellular responses to inflammatory stimuli more involved in promoting fibrosis.
(§1) Other pregnenolone derivatives (Table 4) for which the metabolism in downstream active steroids was reduced were tested for their ability to inhibit: 1. effects of the THC-induced cannabinoid tetrade (decrease in body temperature and in locomotor activity, (THC 10 mg/kg, compounds 6 mg/kg 15-30 min before THC) that is recognized as a sound method to evaluate the activation of the CB1 receptor; 2. THC-induced increase in food intake a typical effect of CB1 activation (THC between 0.5 and 1 mg/kg, compounds between 2 and 4 mg/kg 30 min before THC); 3. the increase in TNFalpha induced by LPS, another effects typical of CB1 […] (compounds 6 mg/kg 15 min before LPS). For each compound and each test independent groups of animals were used (at least n=6 per compound/per test).

CB1 receptor [2] = target: T1, CB1 receptor (Rattus norvegicus, UniProt P20272); assay: THC-induced increase in food intake in ad libitum fed Wistar rats; type: in vivo; design: tissue Charles River Laboratories (France) (animals); host or cells: living Wistar rats, whole animal; conditions: THC 0.5 mg/kg; 17-methylpregnenolone 8 mg/kg sc
Method: (§2) Food intake was evaluated by measuring consumption of food in the home cages of the animals. For each animal, 50-100 g of standard laboratory chow (U.A.R., France) was placed in the cleaned home cage. The remaining amount of food was weighted 1 h later and the amount of food consumed calculated.

CHO cells = assay: Study of metabolism in vitro in CHO cells, steroids in culture medium by GC/MS; conditions: CHO cells
Method: (§3) Plasma, brain and culture medium levels of pregnenolone (5-Pregnen-3β-ol-20-one), allopregnanolone (3α-hydroxy-5α-pregnan-20-one), epiallopregnanolone (3β-hydroxy-5α-pregnan-ol-20-one), testosterone, and 5α dihydrotestosterone were determined by GC/MS according to the of estraction, purification and quantification protocol described previously (George O, et al., Biol Psychiatry. 2010 68: 956-63, Vallee M, et al., Anal Biochem. 2000, 287:153-66).
The CHO-K1 cell line (#CCL-61, ATCC-LGC, USA) derived as a subclone from the parental CHO cell line initiated from a biopsy of an adult Chinese hamster ovary was used. The CHO-K1 cells were seeded on 24-well plates (#353047, BD Biosciences, USA) to the appropriate concentration (25×10^4 cells/well) in fresh, antibiotic-free medium constituted by 90% DMEM-Glutamax; (#31966-21, Life technologies, USA) and 10% Fetal Bovine Serum (#10270-106, Life technologies, USA).
In this example the inventors further analyzed the metabolism of pregnenolone derivatives using an in vitro test in CHO cells. These cells derived from the ovary have all the enzymes needed to metabolize pregnenolone in down stream steroids.

CB1 receptor [3] = target: T2, CB1 receptor (Mus musculus, UniProt P47746); assay: Food intake in 24 h-food deprived mice (fasting/refeeding); type: in vivo, C57B1/6 mice; design: tissue Charles River Laboratories (France) (animals); host or cells: living mice, whole animal; conditions: no THC; for first statistically significant dose for decrease of food intake: food-deprived (food-restricted) mice; for effect on food intake in 24 h-food deprived mice: food intake over 1 h
CB1 receptor [4] = target: T2, CB1 receptor; assay: THC-induced increase in food intake in mice; type: in vivo; design: tissue Charles River Laboratories (France) (animals); host or cells: living mice, whole animal; conditions: for effect on THC-induced increase in food intake (hyperphagia) in mice: 24 h-food deprived C57B1/6 mice, THC 1 mg/kg, compound 2 mg/kg sc; for % Inhibition of THC-Induced food intake: mice, THC between 0.5 and 1 mg/kg, compounds between 2 and 4 mg/kg 30 min before THC
Method: as §2, §1

CB1 receptor [5] = target: T1, CB1 receptor; assay: Pregnenolone concentrations in the brain after drugs of abuse and CB1 ligands (GC/MS); type: in vivo, Wistar rats; design: tissue Charles River Laboratories (France) (animals); host or cells: living Wistar rats, whole animal; conditions: for effect of CB1/CB2 agonists on pregnenolone concentrations: rats, n=6-12 per group
Method: as §3
In this example the inventors analyzed the effects of the injection of the principal drugs of abuse on the production of pregnenolone in male Wistar rats. […] For example, in the brain, starting from pregnenolone two parallel enzymatic cascades allow producing on one hand allopregnanolone and its stereoisomer epiallopregnanolone and on the other testosterone and its metabolite DHT. These brain steroids were quantified using GC-MS, the only technique able to differentiate their subtle structural differences. […] Concentrations of neurosteroids were analyzed 15, 30 and 120 min after the injection in several ascending brain structure, the ventral midbrain the hypothalamus, the striatal complex and the frontal cortex.
The example provides data obtained in the plasma and in several brain structures: frontal cortex (FCX); nucleus accumbens (ACC); striatum (STR); hypothalamus (HYP).
The effects of THC in the brain are mediated by a family of G-protein-coupled seven membrane receptors (GCPR) and principally by the CB1 and CB2 receptors.

CB1 receptor [6] = target: T1, CB1 receptor; assay: THC inhibition of AMPAR-mediated EPSC, patch clamp in nucleus accumbens slices; type: cell-based, rats; design: from tissue; host or cells: acute coronal brain slices, nucleus accumbens; conditions: control slices
CB1 receptor [7] = target: T2, CB1 receptor; assay: THC inhibition of fEPSP in nucleus accumbens slices; type: cell-based, mice; design: from tissue; host or cells: acute brain slices, nucleus accumbens; conditions: control slices
Method: Animals were deeply anesthetized with Isoflourane and transcardially perfused with a sucrose-based physiological solution at 4° C. (in mM: 23 NaHCO3, 70 Choline Cl, 75 Sucrose, 25 Glucose, 2.5 KCl, 1.25 NaH2PO4, 7 MgCl2 and 0.5 CaCl2). The brain was removed and sliced (250-300 μm) in the coronal plane using a vibratome (Campden Instruments, Loughborough, UK). During the slicing process, the brain was maintained in the sucrose-based solution. Immediately after cutting, slices were stored at 32° C. for 40 minutes in a low-calcium artificial cerebrospinal fluid (low-Ca^2+ ACSF) that contained (in mM): 23 NaHCO3, 120 NaCl, 11 Glucose, 2.5 KCl, 1.2 NaH2PO4, 2.4 MgCl2, 1.2 CaCl2. Slices were then stored in low-Ca^2+ ACSF at room temperature until recording.
For fEPSPs, extracellular glass recording and stimulating electrodes were filled with ACSF. Synaptic potentials were evoked by means of two electric stimuli (0.1-0.25 mA, 200 μsec duration) delivered at 20 Hz every 10 seconds. Stimulating electrode was placed at a distance>150 μm in the dorsomedial direction from the recoding electrode.
In order to test the effect of pregnenolone on a wider range of THC concentrations, we recorded fEPSP in NAc slices. Due to the possibility to achieved stable fEPSP measurements for several hours, this technique is ideally suited to perform dose-response curves and has previously been used to address CB1 receptor function (Robbe et al., 2001; Mato et al., 2004). Thus, AMPAR-mediated evoked fEPSP were recorded by electrically stimulating local axons.

[8] = Elevated plus maze, anxiety-like behaviors; type: in vivo, mice; conditions: sc, 30 min before test; pregnenolone 1, 6, 10 mg/kg; rimonabant 10 mg/kg
Method: The elevated plus maze was made by a central platform (10×10 cm) from which departed 4 arms (45×10 cm) at a 90° angle from each other. Two opposite arms, named closed arms had peripheral wall 50 cm high. The two other arms, named open arms had no walls. The maze was suspended at 66 cm from the floor of the room and was brightly lighted (120 lux). The testing consisted in placing the animal in the central platform and the number of entry and the time spent in each compartment of the maze recorded for 5 min. The number of entry and time spent in the open arms are considered and index of anxiety-like behaviors, whilst the total number of entry are and index of locomotor activity.
One of the major side effects of orthosteric antagonists of the CB1 is the induction of behavioral side effect and in particular an axiodepressive state. […] This test has been chosen because an increase in anxiety was the principal undesirable side effect of this compound in humans.

CB1 receptor [9] = target: T2, CB1 receptor; assay: THC-induced cannabinoid tetrad (body temperature, locomotor activity, catalepsy, analgesia); type: in vivo, mice; design: tissue Charles River Laboratories (France) (animals); host or cells: living mice, whole animal; conditions: mice; THC 10 mg/kg; compounds 6 mg/kg 15-30 min before THC

T2 sequence (P47746 whole entry): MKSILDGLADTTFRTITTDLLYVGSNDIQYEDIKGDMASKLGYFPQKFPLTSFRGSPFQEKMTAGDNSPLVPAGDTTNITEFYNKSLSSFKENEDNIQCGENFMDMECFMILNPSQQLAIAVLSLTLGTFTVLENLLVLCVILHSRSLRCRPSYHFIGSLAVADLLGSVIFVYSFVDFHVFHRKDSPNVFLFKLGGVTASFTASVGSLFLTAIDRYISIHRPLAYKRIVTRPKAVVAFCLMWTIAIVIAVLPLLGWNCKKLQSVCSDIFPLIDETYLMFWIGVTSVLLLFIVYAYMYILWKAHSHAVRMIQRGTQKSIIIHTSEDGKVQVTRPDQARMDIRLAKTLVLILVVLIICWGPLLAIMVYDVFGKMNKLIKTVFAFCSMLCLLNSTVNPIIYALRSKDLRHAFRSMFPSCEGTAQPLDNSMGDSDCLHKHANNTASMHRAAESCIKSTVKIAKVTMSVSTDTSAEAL
T1 sequence (P20272 whole entry): as the sequence (P47746 whole entry) above, with D95E counted along it

SMILES | production of allopregnanolone and epiallopregnanolone in nucleus accumbens [1] | effect on increase in food intake induced by THC in ad libitum fed Wistar rats (CB1 receptor [2]) | metabolism in downstream active steroids (Reduced metabolism / Metabolized) (CHO cells) | first statistically significant dose for decrease of food intake (CB1 receptor [3]) [mg/kg] | effect on food intake in 24 h-food deprived mice (CB1 receptor [3]) | effect on THC-induced increase in food intake (hyperphagia) in mice (CB1 receptor [4]) | % Inhibition of THC-Induced food intake (CB1 receptor [4]) | other results
CC(=O)C1CCC2C3CC=C4C[C@@H](F)CC[C@]4(C)C3CC[C@]12C (stereo partly drawn) [Compound 1, 3β-Fluoropregnenolone] | None of the modified pregnenolone derivatives | non statistically significant trend to decrease | Reduced metabolism | 6 | dose-dependently decreased food intake | decreased THC-induced hyperphagia | ≥100%, P < 0.01 | inhibition in vivo at 6 mg/kg (TNF-α): 58%
CCCC(C)(C)c1ccc2c(c1)OC(C)(C)[C@@H]1CC=C(C)C[C@@H]21 [JWH, 133] |  |  |  |  |  |  |  | effect of CB1/CB2 agonists on pregnenolone concentrations (CB1 receptor [5]): much lower and not significant effects
CC(=O)[C@@]1(C)CCC2C3CC=C4C[C@@H](F)CC[C@]4(C)C3CC[C@@]21C (stereo partly drawn) [Compound 3, 3β-Fluoro-17α-methylpregnenolone] | None of the modified pregnenolone derivatives | non statistically significant trend to decrease | Reduced metabolism | 6 | dose-dependently decreased food intake | decreased THC-induced hyperphagia | ≥100%, P < 0.01 | 
CCCCCc1cc(O)c2c(c1)OC(C)(C)[C@@H]1CCC(C)=C[C@@H]21 [THC, Δ9-tetrahydrocannbinol, reference compound] |  |  |  |  |  |  |  | inhibition of EPSC amplitude by THC (CB1 receptor [6]): 34.3±3.7 % of inhibition; increase in brain concentrations of pregnenolone (CB1 receptor [5]; nucleus accumbens, between 15 and 30 min after the injection, THC 3 mg/kg): around 1500%; ED50 (CB1 receptor [5]; rat, 30 min after the injection, THC 0.3-9 mg/kg, read-out: ED50 of the increase in pregnenolone in the brain): ~3 mg/kg; inhibition at 10 µM (CB1 receptor [7]; THC 10 μM): 23.9 ± 6%; inhibition at 20 µM (CB1 receptor [7]; THC 20 μM): 35.3 ± 4.7%; inhibition at 40 µM (CB1 receptor [7]; THC 40 μM): 48.6 ± 3.6%
Cc1c(C(=O)NN2CCCCC2)nn(-c2ccc(Cl)cc2Cl)c1-c1ccc(Cl)cc1 [rimonabant, reference compound] |  |  |  |  |  |  |  | anxiety-like behavior (entries and time spent in open arms) [8]: anxiogenic effects
CCCCCCC(C)(C)c1cc(O)c2c(c1)OC(C)(C)[C@@H]1CC=C(CO)C[C@@H]21 [HU210] |  |  |  |  |  |  |  | effect of CB1/CB2 agonists on pregnenolone concentrations (CB1 receptor [5]): induced a significant increase in pregnenolone
CC(=O)[C@@]1(C)CCC2C3CC=C4C[C@@H](O)CC[C@]4(C)C3CC[C@@]21C (stereo partly drawn) [Compound 2, 17α-Methylpregnenolone] | None of the modified pregnenolone derivatives | significantly reduced; also recorded: decrease significantly the increase in food intake induced by THC in rats | Reduced metabolism | 4 | dose-dependently decreased food intake | decreased THC-induced hyperphagia | ≥100%, P < 0.001 | inhibition in vivo at 6 mg/kg (TNF-α): 60%; % Inhibition temperature decrease (CB1 receptor [9]): 43%, P < 0.001; % increase in motor activity (CB1 receptor [9]): 240%, P < 0.01; dose inhibiting THC-induced increase in food-intake (first effective dose) (CB1 receptor [4]; dose response in 24 h-food deprived mice, 0.5 mg/kg dose was ineffective): 1 mg/kg
